From patent publication US12239650B2, “Compounds for treating and preventing net associated complications” (The Australian National University, priority 2019, dated 2025)

Columns and labels:
histones [1] = experiment: Lipid bilayer assay (artificial lipid bilayers exposed to histones); details: for Average bilayer lifetime: histones alone 5.7±1.2, control 46±4; for Incidence of rapid bilayer rupture: within 0.3-0.5 min of histone addition, histones alone 28%
Procedure: Lipid bilayer assays. Artificial lipid bilayers, prepared as previously described (Rebbeck, R. T. et al. The beta(1a) subunit of the skeletal DHPR binds to skeletal RyR1 and activates the channel via its 35-residue C-terminal tail. Biophys J 100, 922-930 (2011).), separated symmetrical 150 mM or 250 mM KCl (pH ˜5.5) solutions. Histones (1 μM, 15.2 μg ml^−1) were added to bilayers alone or after 0.5-3 h incubation with 10 μM CBS (3.5 μg ml^−1) or 10 μM MTS (5.1 μg ml^−1) at ˜20° C. Current was recorded continuously after histone addition until the bilayers broke or the experiment was terminated.

[2] = test system: histone-induced Ca2+ flux by HMEC-1; experiment: Calcium flux in endothelial cells (Indo-1 flow cytometry); assay type: cell-based, human; details: compounds 100 μg ml^−1, histones 100 μg ml^−1, FIG. 5c
Procedure: Calcium flux studies in endothelial cells. HMEC-1 (2×10^7 ml^−1) in RPMI-1640 medium were incubated with Indo-1 AM (5 μM) (ThermoFisher) (Tellam, R. L. & Parish, C. R. The effect of sulfated polysaccharides on the free intracellular calcium ion concentration of lymphocytes. Biochim Biophys Acta 930, 55-64 (1987); and Weston, S. A., Tellam, R. L. & Parish, C. R. Dextran sulfate induces changes in the free intracellular calcium ion concentration of a subpopulation of immature thymocytes. Immunol Cell Biol 69, 369-376 (1991)) at 37° C. for 60 min. After 3 washes with RPMI-1640 medium supplemented with 5% FCS the cells were resuspended at 4×10^6 ml^−1 in ice-chilled HEPES-buffered saline (NaCl 8 g l^−1, KCl 0.4 g l^−1, CaCl2 0.2 g l^−1, MgCl2·6H2O 0.2 g l^−1, D-glucose 1.8 g l^−1, pH 7.4) supplemented with 10 mM HEPES. […] Intracellular Ca^2+ flux was monitored using flow cytometry. […] After the exclusion of cellular debris and clumped cells (on the basis of FSC/SSC light scattering) the basal Ca^2+ level was monitored for 2 min before histone addition in the presence/absence of novel compounds. Ca^2+ levels were measured at 1, 3 and 9 min post-histone addition with a constant flow rate (˜300 events/sec). Ca^2+ flux was determined as an increase in the ratio of geometric mean fluorescence intensity (GMFI) of Ca^2+-bound over Ca^2+-unbound Indo-1.

histones [3] = experiment: Murine histone-induced deep vein thrombosis (DVT) model; assay type: in vivo; details: mice, histones 10 mg kg^−1 i.v., compound 50 mg kg^−1 i.v., 48 h, FIG. 6c
Procedure: Murine deep vein thrombosis (DVT) model. The procedure used is largely as previously described (Brill, A. et al. Neutrophil extracellular traps promote deep vein thrombosis in mice. J Thromb Haemost 10, 136-144 (2012)). […] The peritoneum and skin were closed following which all mice received an i.v. injection of histones via the tail vein (10 mg kg^−1) or an equivalent volume of saline followed 5 min later by an i.v. injection of test compounds (50 mg kg^−1) or saline. Mice were monitored for 48 h after which they were re-anesthetized, re-opened and any thrombi that had developed distal to the IVC stenosis were removed for analysis. Sham operated control animals received laparotomy and 90% ligation of the IVC, however the ligation was removed immediately after occlusion of the IVC.

[4] = test system: histone-mediated cytotoxicity for HMEC-1; experiment: Histone-mediated cytotoxicity assay (PI/Calcein-AM flow cytometry); assay type: cell-based
Procedure: Histone-mediated cytotoxicity assays. To determine the cytotoxicity of calf thymus histones (Sigma-Aldrich), various concentrations of histones (100-800 μg ml^−1) were added to suspensions of HMEC-1 or HUVEC (1×10^6 ml^−1) in 96 well plates and incubated for 1 h at 37° C. Cells were then incubated for 5 min at 37° C. with propidium iodide (PI; 2.5 μg ml^−1) (ThermoFisher Scientific), to detect dead cells, and Calcein-AM (0.04 μM) (ThermoFisher Scientific), to detect viable cells, placed on ice and the percentage of dead and viable cells determined by flow cytometry using gating strategies. In inhibition assays, HMEC-1 were incubated with histones (400 μg ml^−1) for 1 h at 37° C. in the presence of different concentrations of compounds (12.5-400 μg ml^−1) prior to the addition of PI and Calcein-AM. HMEC-1 cytotoxicity at each compound concentration was then determined based on the formula:
[formula] and the IC50 value for each polyanion then determined based on the line of best fit (nonlinear regression analysis) using Prism Software (Graphpad Software). In all assays MTS (IC50 30 μg ml^−1) was included as a standard to compensate for experimental variation, with data being adjusted in each assay to MTS having an IC50 of 30 μg ml^−1.

[5] = Rat ischemia reperfusion tissue (skin) flap model; assay type: in vivo; details: rat skin flap IRI, 50 mg kg^−1 i.p., 72 h, FIG. 7d
From the text: Rat ischemia reperfusion tissue flap model. The procedure employed is largely based on a previously described method (Bone, R. C. et al. Definitions for sepsis and organ failure and guidelines for the use of innovative therapies in sepsis. The ACCP/SCCM Consensus Conference Committee. American College of Chest Physicians/Society of Critical Care Medicine. Chest 101, 1644-1655 (1992)). Briefly, male Wistar rats were anaesthetized, locally depilated and a 3 cm by 6 cm fasciocutaneous flap was excised leaving the vascular pedicle intact. […] The clamp was removed 10 h post-application permitting returned blood flow to the flap. Test compounds (50 mg kg^−1) or saline were administered i.p. 5 min prior to clamp application and 5 min following its removal. The rats were monitored for a total experimental period of 72 h during which rats received additional compound or saline i.p. at 24 and 48 h post-op. The ‘Control No Clamp’ rats had the tissue flap excised and rubber placed underneath prior to re-suturing, however, the vessel was not clamped and they received saline at the same time points as the other rats. At the end of the experimental period the viability of the flaps was determined by the percentage of black necrotic or reddened areas versus pink viable areas. […]

[6] = test system: anti-proliferative effect of histones on HMEC-1; experiment: HMEC-1 proliferation (3H-thymidine) after histone exposure; assay type: cell-based, human; details: compounds 100 μg ml^−1, histones 400 μg ml^−1, FIG. 8b
[7] = histones 1 μM with 10 μM compound

Compound | Average bilayer lifetime (histones [1]; [7]) [min] | Incidence of rapid bilayer rupture (histones [1]) [%] | Effect on histone-induced Ca2+ response [2] | Inhibition of histone-mediated DVT (histones [3]) | Inhibition of histone-mediated cytotoxicity for HMEC-1 (endothelial cells) ([4]; compared with heparin, FIG. 2a) | IC50, inhibition of histone-mediated HMEC-1 cytotoxicity ([4]; histones 400 μg ml^−1, 1 h 37° C., MTS used as standard in all assays) [µg/mL] | Bilayer lifetime compared with control lifetimes (histones [1]; [7]) | Viable area of the skin flap [5] | Neutralization of anti-proliferative effect of histones on HMEC-1 monolayers [6]
O=S(=O)(O)OC[C@H]1O[C@@H](O[C@H]2[C@H](OS(=O)(=O)O)[C@@H](OS(=O)(=O)O)C(OS(=O)(=O)O)O[C@@H]2COS(=O)(=O)O)[C@H](OS(=O)(=O)O)[C@@H](OS(=O)(=O)O)[C@@H]1OS(=O)(=O)O (stereo partly shown) [CBS, cellobiose per-O-sulfate] | 18 ± 4 | 5.8 | substantially inhibited | almost totally inhibited |  |  |  |  | 
O=S(=O)(O)OC[C@H]1O[C@H](O[C@H]2[C@H](OS(=O)(=O)O)[C@@H](OS(=O)(=O)O)C(OS(=O)(=O)O)O[C@@H]2COS(=O)(=O)O)[C@H](OS(=O)(=O)O)[C@@H](OS(=O)(=O)O)[C@@H]1O[C@H]1O[C@H](COS(=O)(=O)O)[C@@H](OS(=O)(=O)O)[C@H](OS(=O)(=O)O)[C@H]1OS(=O)(=O)O (stereo partly shown) [MTS, maltotriose per-O-sulfate] | 36 ± 5 | 2.5 | totally ablated | almost totally inhibited | as effective as heparin | 30 | not significantly different from the control lifetimes | highly variable | completely neutralized
